Experimental data taken from article PMC12655351, “Synthesis and Anticancer Activity Evaluation of New 5-((5-Nitrofuran-2-yl)allylidene)-2-thioxo-4-thiazolidinones” (Pharmaceuticals, 2025).
Where “and” joins values, the source holds several entries; their conditions need not be identical. Identical values can stand only once. Like-named read-outs stand apart in the source and are kept apart here.

Columns and labels:
[1] = test system: HOP-92; test: NCI-60 SRB screen; conditions: HOP-92, 48 h
[2] = test system: MDA-MB-231/ATCC; conditions: 10 μM, 48 h
[3] = test system: AGS; test: MTT assay; type: cell-based; conditions: Homo sapiens, 24 h of treatment
Experimental: (§1) The NCI-60 screening protocol utilizes the sulforhodamine B (SRB) assay following 48 h of compound exposure. […] The MTT assay was performed on eleven cancer cell lines: human breast cancer (MDA-MB-231, MCF-7, HCC 1954), human gastric cancer (AGS), human colorectal adenocarcinoma (HT-29, DLD-1, HCT 116), human neuroblastoma (SH SY5Y), and human leukemia (JURKAT, RMPI 8866, K-562) cell lines. The study was conducted in triplicate at the following seven concentrations: 0.62, 1.25, 2.5, 5, 10, 20, and 40 μM.
(§2) The selected cell lines were seeded into 96-well plates and cultured in accordance with the previously described methodology. Then, the cells were treated with all tested compounds and DOX at concentrations of 0.625, 1.25, 2.5, 5.0, 10.0, 20.0, and 40.0 μM for 24 h. A solution of 3-(4,5-dimethyl-2-thiazolyl)-2,5-diphenyl-2H-tetrazolium bromide (Sigma-Aldrich, St. Louis, MO, USA) in phosphate-buffered saline without calcium and magnesium (Corning, Kennebunk, ME, USA) at a concentration of 5 mg/mL was used to carry out MTT assay. After incubation, 20 μL of the prepared MTT solution was added, and then the cells were incubated at 37 °C for two hours. Afterwards, the cells were lysed using 100 μL of lysing buffer (comprising 25 mM HCl, 2% acetic acid, 3% DMF, and 5% SDS, with a pH of 4.7). The absorbance was determined at a wavelength of 570 nm using an Absorbance 96 microplate reader (Byonoy GmbH, Hamburg, Germany).

[4] = test system: Jurkat; test: MTT assay; type: cell-based; conditions: Homo sapiens, 24 h of treatment
Experimental: as §1, §2

[5] = test system: MCF-7; test: MTT assay; type: cell-based; conditions: Homo sapiens, MCF7; MCF-7, 24 h of treatment
Experimental: as §1, §2

[6] = test system: MDA-MB-231; test: MTT assay; type: cell-based; conditions: Homo sapiens; MDA-MB-231, 24 h of treatment
Experimental: as §1, §2

[7] = test system: HT-29; test: MTT assay; type: cell-based; conditions: Homo sapiens; HT-29, 24 h of treatment
Experimental: as §1, §2

[8] = test system: HCT-116; test: MTT assay; type: cell-based; conditions: Homo sapiens; HCT-116, 24 h of treatment
Experimental: as §1, §2

[9] = test system: SH SY5Y; test: MTT assay; type: cell-based; conditions: Homo sapiens, 24 h of treatment
Experimental: as §1, §2

[10] = test system: K562; test: MTT assay; type: cell-based; conditions: Homo sapiens; K562, 24 h of treatment
Experimental: as §1, §2

[11] = test system: HCC-1954; test: MTT assay; type: cell-based; conditions: Homo sapiens, HCC1954; HCC-1954, 24 h of treatment
Experimental: as §1, §2

[12] = test system: RPMI 8866; test: MTT assay; type: cell-based; conditions: Homo sapiens; RPMI 8866, 24 h of treatment
Experimental: as §1, §2

[13] = test system: DLD-1; test: MTT assay; type: cell-based; conditions: Homo sapiens; DLD-1, 24 h of treatment
Experimental: as §1, §2

[14] = test system: DU-145
[15] = test system: PC-3; conditions: PC-3, 48 h
[16] = test system: HL-60(TB); test: NCI-60 SRB screen; conditions: HL-60(TB), 48 h
[17] = test system: HT29; test: cells; conditions: Homo sapiens, HT-29, 48 h, HT29, 48 h
[18] = test system: SK-OV-3; test: cells; conditions: Homo sapiens, SK-OV-3, 48 h
[19] = test system: SK-OV-3; conditions: SK-OV-3, 48 h
[20] = test system: OVCAR-4; test: cells; conditions: Homo sapiens, OVCAR-4, 48 h
[21] = test system: CCRF-CEM; conditions: 48 h
[22] = test system: M14; test: NCI-60 SRB screen; conditions: Homo sapiens, M14, 48 h, read-out: LC50, M14, 48 h
[23] = test system: NCI-H460; test: NCI-60 SRB screen; conditions: NCI-H460, 48 h
[24] = test system: NCI-H322M; test: NCI-60 SRB screen; conditions: 48 h
[25] = test system: LOX IMVI; conditions: 48 h
[26] = test system: SK-MEL-5
[27] = test system: Ovarian cancer; test: cells; conditions: Homo sapiens
[28] = test system: SF-539; conditions: SF-539, 10 μM, 48 h
[29] = test system: Prostate Cancer; conditions: Prostate Cancer subpanel
[30] = test system: Colon cancer; test: NCI-60 SRB screen, subpanel

SMILES: O=C(O)CCCCCN1C(=O)/C(=C/C=C/c2ccc([N+](=O)[O-])o2)SC1=S [14b, 6-((Z)-5-((E)-3-(5-nitrofuran-2-yl)allylidene)-4-oxo-2-thioxothiazolidin-3-yl)hexanoic acid]
- GI50 [1]: 1.05 µM
- TGI [1]: 3.34 µM and 2.48 µM
- GI50 ([1]; Homo sapiens): 1.74 µM
- CC50 ([1]; Homo sapiens, read-out: LC50, HOP-92, 48 h): 6.41 µM
- growth GP [2]: -99.86%
- IC50 [3]: 2.57 µM
- IC50 [4]: 0.28 µM
- IC50 [5]: 0.85 µM
- IC50 [6]: 6.61 µM
- IC50 [7]: 4.52 µM
- IC50 [8]: 2.11 µM
- IC50 [9]: 4.11 µM
- IC50 [10]: 1.53 µM
- IC50 [11]: 3.3 µM
- IC50 [12]: 3.13 µM
- IC50 [13]: 1.8 µM
- growth GP ([14]; DU-145, 10 μM, 48 h): -98.04%
- GI50 ([14]; DU-145, 48 h): 1.59 µM
- TGI ([14]; DU-145, 48 h): 2.87 µM and 3.18 µM
- CC50 ([14]; human, 48 h): 6.35 µM
- TGI [15]: 3.15 µM and 3.30 µM
- GI50 [16]: 1.11 µM
- TGI [16]: 3.32 µM and 2.81 µM
- GI50 ([16]; Homo sapiens, HL-60, 48 h): 0.75 µM
- GI50 [17]: 1.19 µM
- GI50 [18]: 1.71 µM
- GI50 [19]: 2.98 µM
- GI50 [20]: 1.31 µM
- CC50 ([20]; read-out: LC50, OVCAR-4, 48 h): 5.41 µM
- GI50 [21]: 0.27 µM
- TGI [21]: 0.57 µM and 0.96 µM
- CC50 [22]: 5.56 µM
- GI50 ([23]; Homo sapiens): 1 µM
- CC50 ([23]; Homo sapiens, read-out: LC50): 5.54 µM
- GI50 [23]: 0.63 µM
- TGI [23]: 2.36 µM and 2.31 µM
- GI50 [24]: 1.82 µM
- TGI [24]: 3.39 µM and 3.55 µM
- GI50 ([24]; Homo sapiens): 1.68 µM
- CC50 ([24]; Homo sapiens, read-out: LC50, NCI-H322M, 48 h): 6.84 µM
- growth GP ([25]; LOX IMVI, 10 μM): -95.58%
- GI50 ([25]; LOX IMVI): 0.19 µM
- TGI ([25]; LOX IMVI): 0.42 µM and 0.39 µM
- CC50 ([25]; human): 0.78 µM
- TGI ([26]; SK-MEL-5, 48 h): 1.98 µM and 3.14 µM
- CC50 ([26]; human, 48 h): 6.38 µM
- GI50 ([27]; read-out: MG_MID GI50): 1.11 µM
- CC50 ([27]; read-out: MG_MID LC50): 15.6 µM
- growth GP [28]: -98.05%
- MG_MID TGI [29]: 3.13 µM
- MG_MID TGI ([30]; Colon cancer subpanel): 1.92 µM
- GI50 ([30]; Homo sapiens, read-out: MG_MID GI50): 0.87 µM
- CC50 ([30]; Homo sapiens, read-out: MG_MID LC50): 11.7 µM

SMILES: CC(C(=O)O)N1C(=O)/C(=C/C=C/c2ccc([N+](=O)[O-])o2)SC1=S (stereo not shown) [2b, 2-((Z)-5-((E)-3-(5-Nitrofuran-2-yl)allylidene)-4-oxo-2-thioxothiazolidin-3-yl)propanoic acid]
- IC50 [3]: 12.1 µM
- IC50 [4]: 4.78 µM
- IC50 [5]: 11.3 µM
- IC50 [6]: 25.4 µM
- IC50 [7]: 24.5 µM
- IC50 [8]: 39 µM
- IC50 [9]: 30.6 µM
- IC50 [10]: > 40 µM
- IC50 [11]: 12.5 µM
- IC50 [12]: 29 µM
- IC50 [13]: 9.98 µM
